Data set [1] relates to SARS-CoV-2 WA1 (USA-WA1/2020). As to the kind of experiment: Antiviral immunofluorescence assay, SARS-CoV-2 WA1 in Calu-3 cells. The settings on record: for EC50: Severe acute respiratory syndrome coronavirus 2, Calu-3, WA1, Calu-3 cells, read-out: EC50; for EC50 / EC90: immunofluorescence, 44 hpi, mean ± SD; for EC90: Severe acute respiratory syndrome coronavirus 2, WA1, Calu-3 cells; for fold lower EC50 compared to V2043: Calu-3 and Huh7.5 cells; for fold more active than RDV: Calu-3 cells, based on EC50; for fold more active than 116-N1, the parent nucleoside of VV116: own EC50 compared with 116-N1 of ref 15. Type of data set: cell-based.

Data set [2] in a line: in vitro. The settings on record: human.
Data set [3] has as its system SARS-CoV-2 (WA-1). Description: Antiviral immunofluorescence assay, SARS-CoV-2 WA1 in Huh7.5 cells. It is filed as cell-based. The settings on record: Severe acute respiratory syndrome coronavirus 2, WA-1, Huh7.5 cells, immunofluorescence, 48 hpi; for EC50: read-out: EC50; for EC90: read-out: EC90.
Data set [4] concerns SARS-CoV-2 (WA-1). Description: Antiviral immunofluorescence assay, SARS-CoV-2 WA1 in Vero-TMPRSS2 cells. Type of data set: cell-based. The settings on record: for EC50: Severe acute respiratory syndrome coronavirus 2, Vero/TMPRSS2; for EC90: Severe acute respiratory syndrome coronavirus 2, WA-1, Vero-TMPRSS2 cells, immunofluorescence, 38 hpi.
A short description of data set [5]: in vitro. The following applies: human. This is another data set of the same source.
The nature of data set [6]: in vitro.
Protocol: Cells were seeded as per SARS-CoV-2 infection studies in opaque walled 96-well cell culture plates and incubated overnight for Huh7.5 and Vero-TMPRSS2 cells and for an additional 24h for Calu-3 cells. Compounds or controls were added at the indicated concentrations. Cells were incubated for 48h for Huh7.5 cells, 40–44h for Calu-3 cells, or 30–32h for Vero-TMPRSS2 cells at 37 °C and 5% CO2, an equal volume of CellTiter-Glo reagent (Cat. #G7570, Promega) or CellTiter-Glo 2.0 reagent (Cat. #G9241, Promega) was added and mixed, and luminescence was recorded on a Veritas Microplate Luminometer (Turner BioSystems) according to manufacturer recommendations. Percent viability was calculated compared to DMSO controls, and CC50 values were calculated using Prism 9.
Calu-3 cells were treated for 44h (A), Huh7.5 cells were treated for 48h (B), and Vero-
TMPRSS2 cells were treated for 38h (C) as in infection assays for each cell type. Cell viability
was measured by CellTiter-Glo assay and reported as % cell viability relative to DMSO controls.
Best fit curves calculated in Graphpad Prism 9 were used
to compute cytotoxic concentration 50% (CC50) values in Tables 1-3.

Some results are limits rather than exact numbers.

The term EC50 denotes the concentration at which the effect is half-maximal. A word on the EC90: it is the concentration at which the effect reaches the 90% level. For `CCCCCCCCCCCCCCCCCCOC[C@@H](COP(=O)(O)OC[C@H]1O[C@@](C#N)(c2ccc3c(N)ncnn23)[C@H](O)[C@@H]1O)OCc1ccccc1` [Compound 9b, ((2R,3S,4R,5R)-5-(4-Aminopyrrolo[2,1-f][1,2,4]triazin-7-yl)-5-cyano-3,4-dihydroxytetrahydrofuran-2-yl)methyl ((S)-2-(benzyloxy)-3-(octadecyloxy)propyl) hydrogen phosphate], in data set [1], the EC50 stood at 0.16 ± 0.024 µM and the 90% effect level (EC90) was put at 0.625 ± 0.195 µM. In data set [2], this compound yielded a CC50 at 44 h of 93.4 µM.
As for `CCCCCCCCCCCCCCCCCCOCC(COP(=O)(O)OC[C@H]1O[C@@](C#N)(c2ccc3c(N)ncnn23)[C@H](O)[C@@H]1O)OCc1ccccc1` (stereo partly drawn) [Compound 9c, ((2R,3S,4R,5R)-5-(4-aminopyrrolo[2,1-f][1,2,4]triazin-7-yl)-5-cyano-3,4-dihydroxytetrahydrofuran-2-yl)methyl ((R,S)-2-(benzyloxy)-3-(octadecyloxy)propyl) hydrogen phosphate], the EC50 in data set [1] was found to be 0.172 ± 0.078 µM; in data set [3], 0.175 ± 0.12 µM; in data set [4] it was 0.238 ± 0.074 µM. Further, the EC90 in data set [1] is 1.07 ± 1.04 µM; in data set [3] it was 0.519 ± 0.256 µM; in data set [4], 0.613 ± 0.084 µM. The compound further yielded a CC50 at 44 h in data set [2] of 92.1 µM. In data set [5], the CC50 at 48 h was 64.6 µM. Further, the CC50 in data set [6] (chlorocebus aethiops) is over 100 µM.
Consider `CCCCCCCCCCCCCCCCCCOC[C@H](COP(=O)(O)OC[C@H]1O[C@@](C#N)(c2ccc3c(N)ncnn23)[C@H](O)[C@@H]1O)OCc1cccc(F)c1` [Compound 9d, ((2R,3S,4R,5R)-5-(4-Aminopyrrolo[2,1-f][1,2,4]triazin-7-yl)-5-cyano-3,4-dihydroxytetrahydrofuran-2-yl)methyl ((R)-2-((3-fluorobenzyl)oxy)-3-(octadecyloxy)propyl) hydrogen phosphate], for which the EC50 is 0.224 ± 0.129 µM in data set [1], 0.191 ± 0.077 µM in data set [3] and 0.271 ± 0.022 µM in data set [4]. Besides, the results for the EC90 in data set [1], in data set [3] and in data set [4] were 0.506 ± 0.204 µM, 0.488 ± 0.199 µM and 0.629 ± 0.061 µM, respectively. The same compound had a CC50 at 44 h in data set [2] of 94.7 µM. This compound showed a CC50 at 48 h in data set [5] of 75 µM. This compound showed a CC50 in data set [6] (chlorocebus aethiops) of over 100 µM.
As for `CCCCCCCCCCCCCCCCCCOC[C@H](COP(=O)(O)OC[C@H]1O[C@@](C#N)(c2ccc3c(N)ncnn23)[C@H](O)[C@@H]1O)OCc1cccc(C(F)(F)F)c1` [Compound 9e, ((2R,3S,4R,5R)-5-(4-Aminopyrrolo[2,1-f][1,2,4]triazin-7-yl)-5-cyano-3,4-dihydroxytetrahydrofuran-2-yl)methyl ((R)-3-(octadecyloxy)-2-((3-(trifluoromethyl)benzyl)oxy)propyl) hydrogen phosphate], in data set [1], the EC50 is 0.16 ± 0.093 µM and the EC90 was found to be 0.316 ± 0.083 µM. For the same compound, the CC50 at 44 h in data set [2] was 66.9 µM.
For `CCCCCCCCCCCCCCCCCCOC[C@H](COP(=O)(O)OC[C@H]1O[C@@](C#N)(c2ccc3c(N)ncnn23)[C@H](O)[C@@H]1O)OCc1ccc(C(F)(F)F)cc1` [Compound 9f, ((2R,3S,4R,5R)-5-(4-Aminopyrrolo[2,1-f][1,2,4]triazin-7-yl)-5-cyano-3,4-dihydroxytetrahydrofuran-2-yl)methyl ((R)-3-(octadecyloxy)-2-((4-(trifluoromethyl)benzyl)oxy)propyl) hydrogen phosphate], in that order: 0.177 ± 0.012 µM, 0.408 ± 0.181 µM and 90.2 µM.
For the compound `CCCCCCCCCCCCCCCCCCOC[C@H](COP(=O)(O)OC[C@H]1O[C@@](C#N)(c2ccc3c(N)ncnn23)[C@H](O)[C@@H]1O)OCCCCCCCC` [Compound 9h, ((2R,3S,4R,5R)-5-(4-Aminopyrrolo[2,1-f][1,2,4]triazin-7-yl)-5-cyano-3,4-dihydroxytetrahydrofuran-2-yl)methyl ((R)-3-(octadecyloxy)-2-(octyloxy)propyl) hydrogen phosphate], the EC50 was determined as 0.391 ± 0.039 µM in data set [1], 0.564 ± 0.252 µM in data set [3] and 0.775 ± 0.245 µM in data set [4]. Further, the EC90 in data set [1] was 2.5 ± 1.24 µM; in data set [3], 3.36 ± 2.86 µM; in data set [4] it was 1.79 ± 0.14 µM. The compound also displayed a CC50 at 44 h in data set [2] of over 100 µM. In data set [5], this compound yielded a CC50 at 48 h of over 100 µM. For the same compound, the CC50 in data set [6] (chlorocebus aethiops) is over 100 µM.
Turning to `CCCCCCCCCCCCCCCCCCOC[C@H](COP(=O)(O)OC[C@H]1O[C@@](C#N)(c2ccc3c(N)ncnn23)[C@H](O)[C@@H]1O)OCCC1CCCCC1` [Compound 9i, ((2R,3S,4R,5R)-5-(4-Aminopyrrolo[2,1-f][1,2,4]triazin-7-yl)-5-cyano-3,4-dihydroxytetrahydrofuran-2-yl)methyl ((R)-2-(2-cyclohexylethoxy)-3-(octadecyloxy)propyl) hydrogen phosphate], the EC50 is 0.144 ± 0.02 µM in data set [1], 0.092 ± 0.026 µM in data set [3] and 0.296 ± 0.01 µM in data set [4]. Besides, the EC90 was found to be 1.83 ± 1.04 µM in data set [1], 1.31 ± 0.31 µM in data set [3] and 0.582 ± 0.014 µM in data set [4]. In data set [2], this compound displayed a CC50 at 44 h of 98.7 µM. The compound further registered a CC50 at 48 h in data set [5] of 69.8 µM. In data set [6] (African green monkey), this compound returned a CC50 of over 100 µM.
With `CCCCCCCCCCCCCCCCCCOC[C@H](COP(=O)(O)OC[C@H]1O[C@@](C#N)(c2ccc3c(N)ncnn23)[C@H](O)[C@@H]1O)OCc1ccc(C#N)cc1` [Compound 9j, ((2R,3S,4R,5R)-5-(4-Aminopyrrolo[2,1-f][1,2,4]triazin-7-yl)-5-cyano-3,4-dihydroxytetrahydrofuran-2-yl)methyl ((R)-2-((4-cyanobenzyl)oxy)-3-(octadecyloxy)propyl) hydrogen phosphate], in data set [1], the “fold lower EC50 compared to V2043” value is 3–5.5 fold, the “fold more active than RDV” value came out at 5.3 fold, the EC50 is 0.043 ± 0.013 µM and the EC90 was found to be 0.082 ± 0.022 µM. In data set [1], the “fold more active than 116-N1, the parent nucleoside of VV116” value is 11.5 fold. Further, in data set [3], the EC50 came to 0.024 ± 0.002 µM and the EC90 worked out at 0.07 ± 0.01 µM. The CC50 at 44 h in data set [2] came to 60.2 µM. The compound also gave a CC50 at 48 h in data set [5] of 47.2 µM.
For `CCCCCCCCCCCCCCCCCCOC[C@H](COP(=O)(O)OC[C@H]1O[C@@](C#N)(c2ccc3c(N)ncnn23)[C@H](O)[C@@H]1O)OCc1cccc(C#N)c1` [Compound 9k, ((2R,3S,4R,5R)-5-(4-Aminopyrrolo[2,1-f][1,2,4]triazin-7-yl)-5-cyano-3,4-dihydroxytetrahydrofuran-2-yl)methyl ((R)-2-((3-cyanobenzyl)oxy)-3-(octadecyloxy)propyl) hydrogen phosphate], in data set [1], the “fold lower EC50 compared to V2043” value is given as 3–5.5 fold, the “fold more active than RDV” value was determined as 6.7 fold, the EC50 was found to be 0.034 ± 0.007 µM and the EC90 was found to be 0.065 ± 0.036 µM. The “fold more active than 116-N1, the parent nucleoside of VV116” value in data set [1] came to 9.1 fold. Also, in data set [3], the EC50 amounted to 0.024 ± 0.006 µM and the EC90 was determined as 0.077 ± 0.017 µM. The compound also had a CC50 at 44 h in data set [2] of 61.6 µM. The compound also came in with a CC50 at 48 h in data set [5] of 49.6 µM.
Regarding `CCCCCCCCCCCCCCCCCCOC[C@H](COP(=O)(O)OC[C@H]1O[C@@](C#N)(c2ccc3c(N)ncnn23)[C@H](O)[C@@H]1O)OCc1ccccc1C#N` [Compound 9l, ((2R,3S,4R,5R)-5-(4-Aminopyrrolo[2,1-f][1,2,4]triazin-7-yl)-5-cyano-3,4-dihydroxytetrahydrofuran-2-yl)methyl ((R)-2-((2-cyanobenzyl)oxy)-3-(octadecyloxy)propyl) hydrogen phosphate], the EC50 in data set [1] was 0.091 ± 0.025 µM; in data set [3] it was 0.102 ± 0.017 µM. Further, the EC90 in data set [1] stood at 0.186 ± 0.047 µM; in data set [3] it was 0.281 ± 0.03 µM. In addition, the CC50 at 44 h in data set [2] came to 82.8 µM. This compound showed a CC50 at 48 h in data set [5] of over 100 µM.

Values taken from publication PMC10108740 (Journal of Medicinal Chemistry, 2023).
